Patent US10563197B2, “Use of a combination of Dbait molecule and PARP inhibitors to treat cancer” (INSTITUT CURIE, priority 2015, dated 2020)

What was measured:
Assay type in all cases: cell-based, human
MDAMB231 = experiment: Cell survival, trypan blue counting; settings: for efficacy of the combination of PARPi with AsiDNA versus calculated additivity: 4.8 μM or 16 μM AsiDNA, PARPi doses giving 80% and 50% survival, 6 days; for IC20 / IC50: Homo sapiens, MDA-MB-231, MDAMB231; for IC20: PARPi dose giving 80% survival; for IC50: PARPi dose resulting in 50% survival
Protocol: Cells were grown according to the supplier's instructions.

3 BC cell lines = experiment: Combined treatment survival in BC cell lines (FIG. 6, 7, 12); settings: AsiDNA 4.8 μM with veliparib 10 and 50 μM; 6 days
Protocol: (§1) Efficacy of AsiDNA (4. 8 μM), olaparib (0, 0.1 and 1 μM) or both was monitored 6 days after treatment by cell counting after trypan blue labeling. (A) Percentage of living cells relative to non-treated condition (NT). (B) Percentage of dead cells. Data are expressed as mean+Sc.D. of at least 2 independent experiments. Dotted lines indicate the calculated cell survivals if additivity between AsiDNA and olaparib.
Efficacy of AsiDNA (4.8 μM), veliparib (0, 10 and 50 μM) or both was monitored 6 days after treatment by trypan blue staining. (A) Percentage of living cells relative to non-treated condition (NT). (B) Percentage of dead cells. Dotted lines indicate the calculated cell survivals if additivity between AsiDNA and veliparib.
The inventors monitored cell survival to combined treatment of 3 BC and 2 non-tumor cell lines with different sensitivities to Ola and AsiDNA alone (FIG. 6; Table 1). […] However, the combination remained more efficient or at least equal to the expected additive effect at all the tested doses. […] In contrast, the normal cells were insensitive to both, the combined and the single treatments with AsiDNA and Ola (FIG. 6; Table 1).

2 non-tumor cell lines = experiment: Combined treatment survival in non-tumor cell lines (FIG. 6, 12); settings: AsiDNA 4.8 μM with veliparib 10 and 50 μM; 6 days
Protocol: as §1
(A) Percentage of living cells relative to non-treated condition (NT). (B) Percentage of dead cells. Dotted lines indicate the calculated cell survivals if additivity between AsiDNA and veliparib.
The inventors monitored cell survival to combined treatment of 3 BC and 2 non-tumor cell lines with different sensitivities to Ola and AsiDNA alone (FIG. 6; Table 1).

[1] = tested on: Breast cancer cell lines MDAMB231; experiment: Cell survival with DT01 and PARP inhibitors (Example 1, FIG. 1); settings: DT01 100 or 333 μg/ml plus Olaparib 0.1, 1 μM or Veliparib 1, 10, 50 μM; 6 days
Protocol: Breast cancer cell lines MDAMB231 were treated with 100 μg/ml (Black, Squares) or 333 μg/ml (Grey, Crosses) of DT01 or no DT01 (Black, Diamond) and exposed to either 0, 0.1 and 1 μM of Olaparib (upper panel) or 1, 10 and 50 μM Veliparib (lower panel). Survival was measured 6 days after treatment using trypan blue to detect living cells. The data are presented as % of the non-treated control.
The human cell lines were grown in complete RPMI (Gibco, Cergy Pontoise, France) supplemented with 10% fetal bovine serum (ATGC, Orléans, France), 1% sodium pyruvate, streptomycin ([…]) and penicillin ([…]) (Invitrogen, Carlsbad, Calif., USA). Cells were maintained at 37° C. under a 5% CO2 atmosphere, at 100% humidity. Treatments were performed by adding nucleotides (DT01 and others) or/and PARP inhibitors at time zero in medium without serum. The medium was changed with fresh medium containing fetal bovine serum 24 hours after beginning of treatment. Cells were let to grow for 4 additional days (5 days after treatment), treated with trypsin and counted for total number of cells. Trypan blue (0.4%) was added for counting the living cells (uncolored) in the population.

SMILES | efficacy of the combination of PARPi with AsiDNA versus calculated additivity (MDAMB231) | IC20 (MDAMB231) | IC50 (MDAMB231) | effect of the combined treatment with AsiDNA (3 BC cell lines) | synergistic effect of the combined treatment with AsiDNA (2 non-tumor cell lines) | survival to combined treatment with DT01 versus expected added effect of both single treatments [1]
CNCc1ccc(-c2[nH]c3cc(F)cc4c3c2CCNC4=O)cc1 [Rucaparib, 8-Fluoro-2-{4-[(methylamino)methyl]phenyl}-1,3,4,5-tetrahydro-6H-azepino[5,4,3-cd]indol-6-one] | supra-additive efficacy | 400 nM | 1800 nM | – | – | –
COC1CCN(C(=O)c2cc(Cc3n[nH]c(=O)c4ccccc34)ccc2F)CC1 [AZD2461] | supra-additive efficacy | 100 nM | 500 nM | – | – | –
NC(=O)c1ccc(I)c([N+](=O)[O-])c1 [Iniparib] | supra-additive efficacy | 46000 nM | 49500 nM | – | – | –
Cn1ncnc1[C@H]1c2n[nH]c(=O)c3cc(F)cc(c23)N[C@@H]1c1ccc(F)cc1 [BMN673, (8S,9R)-5-fluoro-8-(4-fluorophenyl)-9-(1-methyl-1H-1,2,4-triazol-5-yl)-8,9-dihydro-2H-pyrido[4,3,2de]phthalazin-3(7H)-one] | supra-additive efficacy | 0.13 nM | 15.4 nM | – | – | –
NC(=O)c1cccc2cn(-c3ccc([C@@H]4CCCNC4)cc3)nc12 [Niraparib] | supra-additive efficacy | 100 nM | 700 nM | – | – | –
C[C@]1(c2nc3c(C(N)=O)cccc3[nH]2)CCCN1 [Veliparib, 2-((fi)-2-methylpyrrolidin-2-yl)-1W-benzimidazole-4-carboxamide] | – | – | – | synergistic effect | absent | synergic effect
